Results taken from paper PMC8522752 (Antimicrobial Agents and Chemotherapy, 2021).
Like-named read-outs stand apart in the source and are kept apart here.

Experiments:
Dengue-3 H87 = assay: Neutral red CPE inhibition assay, Dengue-3 H87 in Huh-7; type: cell-based; conditions: Dengue virus; Dengue-3 H87, Huh-7, neutral red assay; read-out: EC50 (inhibition of virus-induced CPE)
[1] = tested on: Respiratory syncytial virus; assay: Antiviral specificity panel, respiratory syncytial virus in HEp2; type: cell-based; conditions: human respiratory syncytial virus, HEp-2, Respiratory syncytial virus (RNA), read-out: EC50 (inhibit viral replication 50%)
HCV = assay: Antiviral specificity panel, HCV in Huh-7; type: cell-based, hepatitis C virus
Zika virus MR766 = assay: Neutral red CPE inhibition assay, Zika MR766 in Huh-7; type: cell-based; conditions: Huh-7, read-out: EC50 (inhibition of virus-induced CPE)
Dengue-2 New Guinea C [2] = assay: microbe, parasite or virus in culture; type: cell-based; conditions: Huh-7, VYR assay, read-out: EC90 (reduce virus yield by 1 log10) (converted)
Rhinovirus = assay: Antiviral specificity panel, Rhinovirus in H1-HeLa; type: cell-based; conditions: Enterovirus, Rhinovirus (RNA), read-out: EC50 (inhibit viral replication 50%)
Adenovirus = assay: Antiviral specificity panel, Adenovirus in Vero; type: cell-based; conditions: unidentified adenovirus, Adenovirus (DNA), read-out: EC50 (inhibit viral replication 50%)
DENV2 (clinical isolate) [3] = assay: DENV2 clinical isolate CPE inhibition in BHK-21 cells (MTT); type: cell-based, dengue virus
Chikungunya virus = assay: Antiviral specificity panel, Chikungunya in Huh-7; type: cell-based; conditions: Chikungunya (RNA), read-out: EC50 (inhibit viral replication 50%)
in vitro [4] = conditions: dog
in vitro [5] = conditions: human, hamster
Powassan virus LB [6] = assay: microbe, parasite or virus in culture; type: cell-based; conditions: BHK-21, read-out: EC50 (inhibition of virus-induced CPE)
DENV2 (clinical isolate) [7] = assay: DENV2 clinical isolate CPE inhibition in human PBMCs (MTT); type: cell-based, dengue virus
[8] = tested on: Eastern equine encephalitis virus; assay: microbe, parasite or virus in culture; type: cell-based; conditions: Huh-7, read-out: EC50 (inhibit viral replication 50%)
[9] = tested on: West Nile virus Kern 515, WNo2; assay: microbe, parasite or virus in culture; type: cell-based; conditions: West Nile Kern 515, WNo2, Huh-7, VYR assay, read-out: EC90 (reduce virus yield by 1 log10) (converted)
Herpes simplex-1 = assay: Antiviral specificity panel, Herpes simplex-1 in Vero; type: cell-based; conditions: Herpes simplex-1 (DNA), read-out: EC50 (inhibit viral replication 50%)
in vivo [10] = conditions: male, CD-1, mouse, po, 420 mg/kg
[11] = tested on: Yellow Fever virus YFV 17D; assay: microbe, parasite or virus in culture; type: cell-based; conditions: Huh-7, read-out: EC50 (inhibition of virus-induced CPE)
in vivo [12] = conditions: male, cynomolgus, cynomolgus monkey, po, 300 mg/kg
HIV-1 = assay: Antiviral specificity panel, HIV-1 in CEM-SS; type: cell-based; conditions: Human immunodeficiency virus 1, HIV-1 (RNA), read-out: EC50 (inhibit viral replication 50%)
[13] = mice, 1,000 mg/kg loading then 500 mg/kg BID for 3 days, oral
Usutu virus TC-508 [14] = assay: Neutral red CPE inhibition assay, Usutu TC-508 in Huh-7; type: cell-based; conditions: Huh-7, read-out: EC50 (inhibition of virus-induced CPE)
[15] = Cardiomyocyte assay (CellTiter Glo); type: cell-based; conditions: human iPS cardiomyocytes
[16] = Cytotoxicity in uninfected BHK-21 cells (MTT, DENV2 study); type: cell-based; conditions: hamster, BHK-21 without virus, Dengue-2 clinical isolate study, bound = highest concentration tested
Usutu virus TC-508 [17] = assay: microbe, parasite or virus in culture; type: cell-based; conditions: Usutu TC-508, Huh-7, VYR assay, read-out: EC90 (reduce virus yield by 1 log10) (converted)
flaviviruses [18] = tested on: flaviviruses
BHK-21 cells = conditions: hamster
[19] = tested on: West Nile virus Kern 515, WNo2; assay: Neutral red CPE inhibition assay, West Nile virus in Huh-7; type: cell-based; conditions: West Nile Kern 515, WNo2, Huh-7, neutral red assay, read-out: EC50 (inhibition of virus-induced CPE)
Powassan virus Spooner [20] = assay: microbe, parasite or virus in culture; type: cell-based; conditions: BHK-21, read-out: EC90 (reduce virus yield by 1 log10) (converted)
Dengue-2 New Guinea C [21] = assay: Neutral red CPE inhibition assay, Dengue-2 New Guinea C in Huh-7; type: cell-based; conditions: Dengue virus, Huh-7, neutral red assay, read-out: EC50 (inhibition of virus-induced CPE)
in vitro [22] = conditions: African green monkey
[23] = Plasma pharmacokinetics in Sprague Dawley rats after oral AT-752; conditions: rat, oral AT-752 300 mg/kg, earliest time point measured
flaviviruses [24] = assay: microbe, parasite or virus in culture
Powassan virus Spooner [25] = assay: microbe, parasite or virus in culture; type: cell-based; conditions: BHK-21, read-out: EC50 (inhibition of virus-induced CPE)
Rift Valley fever virus = assay: microbe, parasite or virus in culture; type: cell-based; conditions: Huh-7, read-out: EC50 (inhibit viral replication 50%)
[26] = tested on: Yellow Fever virus YFV 17D; assay: microbe, parasite or virus in culture; type: cell-based; conditions: Huh-7, read-out: EC90 (reduce virus yield by 1 log10) (converted)
[27] = Plasma pharmacokinetics in cynomolgus monkeys after oral AT-752; conditions: monkeys, oral AT-752 300 mg/kg
[28] = tested on: Japanese encephalitis virus SA-14; assay: Neutral red CPE inhibition assay, Japanese encephalitis SA-14 in Huh-7; type: cell-based; conditions: Japanese encephalitis SA-14, Huh-7, neutral red assay, read-out: EC50 (inhibition of virus-induced CPE)
Influenza A and B = assay: Antiviral specificity panel, Influenza A and B in MDCK; type: cell-based; conditions: Influenza A virus, Influenza A and B (RNA), read-out: EC50 (inhibit viral replication 50%)
Powassan virus LB [29] = assay: microbe, parasite or virus in culture; type: cell-based; conditions: BHK-21, read-out: EC90 (reduce virus yield by 1 log10) (converted)

Question: Which results are given for `CNc1nc(N)nc2c1ncn2[C@@H]1O[C@H](CO[P@](=O)(N[C@@H](C)C(=O)OC(C)C)Oc2ccccc2)[C@@H](O)[C@@]1(C)F` [AT-281]?
Answer: EC50 (Dengue-3 H87): 770 nM; EC50 [1]: > 100000 nM; selectivity toward HCV (HCV): > 2,000; EC50 (HCV; Hepatitis C virus, HCV (RNA), read-out: EC50 (inhibit viral replication 50%)): 50 nM; EC50 (Zika virus MR766): 640 nM; EC90 (Dengue-2 New Guinea C [2]): 640 nM; EC50 (Rhinovirus): > 100000 nM; EC50 (Adenovirus): > 100000 nM; EC50 (DENV2 (clinical isolate) [3]; Dengue virus, DENV2, BHK-21, read-out: EC50 (inhibition of virus-induced CPE), Dengue-2 clinical isolate, BHK-21): 630 nM; EC50 (DENV2 (clinical isolate) [3]; read-out: EC50 (inhibition of virus-induced CPE), Dengue-2 clinical isolate, BHK-21): 1100 nM; EC50 (Chikungunya virus): 54200 nM; CC50 (in vitro [4]): > 100000 nM; CC50 (in vitro [5]): 85000 to 170000 nM; EC50 (Powassan virus LB [6]): 640 nM; EC50 (DENV2 (clinical isolate) [7]; Dengue virus, DENV2, PBMC, read-out: EC50 (inhibition of virus-induced CPE), Dengue-2 clinical isolate, human PBMC): 600 nM; EC50 (DENV2 (clinical isolate) [7]; read-out: EC50 (inhibition of virus-induced CPE), Dengue-2 clinical isolate, human PBMC): 800 nM; EC50 [8]: 10200 nM; EC90 [9]: 430 nM; EC50 (Herpes simplex-1): > 100000 nM; AUC(0-t) (in vivo [10]): 4.2 ± 0.5 µM·h; Cmax (in vivo [10]): 2.6 ± 0.3 µM; Tmax (in vivo [10]): 48 ± 18 min; EC50 [11]: 310 nM; AUC(0-t) (in vivo [12]): 9.5 ± 3.7 µM·h; Cmax (in vivo [12]): 3.7 ± 1.5 µM; Tmax (in vivo [12]): 60 min; EC50 (HIV-1): > 100000 nM; tolerability (adverse clinical signs) [13]: well tolerated; EC50 (Usutu virus TC-508 [14]): 190 nM; CC50 at 3 days [15]: > 100000 nM; CC50 at 3 days [16]: > 170000 nM; EC90 (Usutu virus TC-508 [17]): 720 nM; SI (CC50/EC50) (flaviviruses [18]): > 210; cytotoxicity (flaviviruses [18]): Little to no cytotoxicity; CC50 (BHK-21 cells): > 170000 nM; EC50 [19]: 1410 nM; EC90 (Powassan virus Spooner [20]): 740 nM; EC50 (Dengue-2 New Guinea C [21]): 480 nM; CC50 (in vitro [22]): > 100000 nM; plasma concentration at 1 h [23]: below the limit of quantitation; EC50 (flaviviruses [24]; Dengue virus, DENV2 / DENV3, read-out: EC50 values, all other flaviviruses tested): 190 to 1410 nM; EC50 (flaviviruses [24]; Orthoflavivirus, in Homo sapiens, 144 h, read-out: EC50 of the virus-induced cytopathic effect (CPE), range over Table 1): 210 to 1410 nM; EC50 (Powassan virus Spooner [25]): 290 nM; EC50 (Rift Valley fever virus): > 100000 nM; EC90 [26]: 260 nM; time present in plasma [27]: more than 4 h; EC50 [28]: 210 nM; EC50 (Influenza A and B): > 100000 nM; EC90 (Powassan virus LB [29]): 2600 nM
